For assay [1], the target named is T1, cGAS (Homo sapiens, UniProt Q8N884). Briefly: Cellular assay to measure cGAS activity (IFNb AlphaLISA in THP1 cells stimulated by RDG-Adenovirus-GFP). Set-up: host or cells: THP1 cells differentiated with PMA and stimulated with RDG-Adenovirus-GFP. The assay is classed as cell-based. Conditions: PMA-differentiated THP1 cells, RDG-Adenovirus-GFP at 1000 MOI; inhibition of IFNb production as marker for cGAS activity. Here is the method: Cellular assay to measure cGAS activity: Use THP1 cell line from ATCC to determine inhibition of cGAS activity by test compounds in human cells. Plate cells on 96-well plates at 0.2×10^6/well and differentiate with phorbol myristate acetate (PMA) at 37° C./5% CO2. After 24 hours, replace PMA containing media with media lacking PMA and further incubate overnight. Stimulate cells were then by RDG-Adenovirus-GFP (Vector Biolabs #1768) at 1000 MOI for 4 hours prior to the addition of test compounds. After overnight incubation, transfer 10 μL of the media from each well to a new plate for IFNb analysis as a marker for cGAS activity. Measure quantification of IFNb with an IFNb AlphaLISA Detection kit (Perkin Elmer AL3133F) by mixing the acceptor beads with the cell supernatant followed by the addition of the biotinylated antibody and donor beads. Measure the relative fluorescence signal produced from the interaction of the donor and acceptor beads by a PHERAStar AlphaLISA protocol and evaluate the inhibitory effect of a compound by plotting specific inhibition of IFNb production against log concentration of the test compound. Calculate IC50 values using a 4-parameter non-linear logistic equation (y=(S0+((SInf−S0)/(1+((qAC50/x)^nHill))))).
T1 sequence (Q8N884 whole entry): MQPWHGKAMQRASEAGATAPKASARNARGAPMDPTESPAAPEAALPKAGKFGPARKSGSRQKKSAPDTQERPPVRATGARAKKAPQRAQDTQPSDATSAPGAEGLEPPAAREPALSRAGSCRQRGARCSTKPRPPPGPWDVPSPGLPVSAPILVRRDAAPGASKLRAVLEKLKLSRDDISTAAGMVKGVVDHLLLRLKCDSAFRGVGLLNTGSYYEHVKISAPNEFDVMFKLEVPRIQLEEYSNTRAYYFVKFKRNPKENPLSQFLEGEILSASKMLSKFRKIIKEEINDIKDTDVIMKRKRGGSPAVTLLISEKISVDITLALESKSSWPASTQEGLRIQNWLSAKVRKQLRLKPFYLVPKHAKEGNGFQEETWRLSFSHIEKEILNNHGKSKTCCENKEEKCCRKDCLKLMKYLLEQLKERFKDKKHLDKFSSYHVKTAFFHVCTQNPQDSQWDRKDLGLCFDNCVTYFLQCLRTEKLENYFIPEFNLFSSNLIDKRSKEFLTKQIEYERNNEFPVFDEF
A general note: In Alpha technology, singlet oxygen from a donor bead excites a nearby acceptor bead.

Assay [2] has as its target T1, cGAS. The experiment in a line: In vitro inhibition assay of cGAS activity (cGAMP production, RapidFire mass spectrometry). The assay is classed as biochemical. Also on record: Insert cDNA encoding full-length of human cGAS; His6; made in house; host or cells: E. coli BL21(DE3). Conditions: 10 nM recombinant human cGAS, 60 nM 75-bp dsDNA, 50 μM ATP, 50 μM GTP, 3 hrs. Here is the method:
Expression and Purification of Recombinant cGAS Protein: Insert cDNA encoding full-length of human cGAS into a modified bacterial expression vector containing an in-frame His6-tag. Induce the E. coli strain BL21(DE3) harboring the plasmid with 1 mM IPTG (Isopropyl β-D-1-thiogalactopyranoside) at 18° C. overnight. Purify the His6-tagged cGAS protein over HISpur Ni-NTA resin in the presence of benzonase and RNase followed by Superdex 200 size exclusion chromatography with storage buffer (50 mM Tris-HCl pH 7.5, 300 mM NaCl, 1 mM DTT, 10% glycerol).
In vitro inhibition assay of cGAS activity: Add a 5 μL mixture containing 10 mM Tris-Cl pH 7.5, 50 mM NaCl, 5 mM MgCl2, 1 mM DTT, 0.01% Triton X-100, 60 nM 75-bp dsDNA, 50 μM ATP, 50 μM GTP, 10 nM of recombinant human cGAS, and serial dilutions of a test compound in DMSO to a 384-well plate and incubate at ambient temperature for 3 hrs. Quench the reaction by the addition of 100 μL of stop solution containing 0.1% formic acid and 0.1 μM internal standard (3′3′-difluoro cGAMP). Measure the amount of cGAMP produced by RapidFire 365 mass spectrometry and evaluate inhibitory effect of a compound by plotting percent specific inhibition of cGAMP production against log concentration of the test compound. Calculate IC50 values using a 4-parameter non-linear logistic equation (y=(S0+((Sinf−S0)/(1+((qAC50/x)^nHill))))).

The IC50 is the concentration at which inhibition is half-maximal. Take `C[C@@H]1C(=O)NCCc2[nH]c3c(Cl)c(Cl)cc(OCc4cocn4)c3c21` (single isomer, unassigned) [Example 178, (S)-7,8-Dichloro-1-methyl-10-(oxazol-4-ylmethoxy)-3,4,5,6-tetrahydroazepino[4,5-b]indol-2(1H)-one or (R)-7,8-dichloro-1-methyl-10-(oxazol-4-ylmethoxy)-3,4,5,6-tetrahydroazepino[4,5-b]indol-2(1H)-one]: the IC50 against cGAS [1] amounted to 0.311 µM; at cGAS [2], 0.0108 µM.
`C[C@@H](O)CNc1cc(Cl)c(Cl)c2c1c1c(n2C)CCNC(=O)[C@@H]1C` (single isomer, unassigned) [Example 100]: the half-inhibitory concentration (IC50) is 1.13 µM on cGAS [1] and 0.0304 µM on cGAS [2].
For `CC1C(=O)NCCc2[nH]c3c(Cl)c(Cl)cc(OC4CCOC4)c3c21` (mixture of isomers) [Example 86, 7,8-Dichloro-1-methyl-10-((tetrahydrofuran-3-yl)oxy)-3,4,5,6-tetrahydroazepino[4,5-b]indol-2(1H)-one], in that order: 3.47 µM and 0.0519 µM.
For `CCC1CNC(=O)Cc2c1[nH]c1c(Cl)c(Cl)cc(NCCO)c21` (stereo not shown) [Example 163, 7,8-Dichloro-5-ethyl-10-((2-hydroxyethyl)amino)-3,4,5,6-tetrahydroazepino[4,5-b]indol-2(1H)-one], in that order: 1.62 µM and 0.0231 µM.
Consider `CC[C@H]1C(=O)NCCc2[nH]c3c(Cl)c(Cl)cc(OCC#N)c3c21` (single isomer, unassigned) [Example 36], for which the IC50 turned out to be 1.2 µM at cGAS [1] and 3.95 µM on cGAS [2].
On to `Cn1ncc(-c2cc(Cl)c(Cl)c3[nH]c4c(c23)CC(=O)NC[C@H]4CCN2CCOCC2)n1` (single isomer, unassigned) [Example 175], for which the half-maximal inhibitory concentration (IC50) against cGAS [1] stood at 1.44 µM; on cGAS [2], 0.0546 µM.
For `C[C@H]1C(=O)NCC(C)(C)c2c1c1c(NC(=O)CO)cc(Cl)c(Cl)c1n2C` (single isomer, unassigned) [Example 134, (R)—N-(7,8-Dichloro-1,5,5,6-tetramethyl-2-oxo-1,2,3,4,5,6-hexahydroazepino[4,5-b]indol-10-yl)-2-hydroxyacetamide or (S)—N-(7,8-Dichloro-1,5,5,6-tetramethyl-2-oxo-1,2,3,4,5,6-hexahydroazepino[4,5-b]indol-10-yl)-2-hydroxyacetamide], the results for the IC50 against cGAS [1] and at cGAS [2] were 0.787 µM and 0.0175 µM, respectively.
Turning to `C[C@H]1C(=O)NCCc2[nH]c3c(Cl)c(Cl)cc(CC#N)c3c21` (single isomer, unassigned) [Example 90], the IC50 against cGAS [1] amounted to 0.993 µM; at cGAS [2] it was 0.552 µM.
With `Cn1ncc(-c2cc(Cl)c(Cl)c3[nH]c4c(c23)CC(=O)NC[C@H]4CCO)n1` (single isomer, unassigned) [Example 8B], the half-maximal inhibitory concentration (IC50) against cGAS [1] stood at 3.14 µM; at cGAS [2], 0.214 µM.
Consider `C[C@@H]1C(=O)NCCc2c1c1c(NC(=O)CO)cc(Cl)c(Cl)c1n2CC(F)(F)F` (single isomer, unassigned) [Example 187, (S)—N-(7,8-Dichloro-1-methyl-2-oxo-6-(2,2,2-trifluoroethyl)-1,2,3,4,5,6-hexahydroazepino[4,5-b]indol-10-yl)-2-hydroxyacetamide or (R)—N-(7,8-Dichloro-1-methyl-2-oxo-6-(2,2,2-trifluoroethyl)-1,2,3,4,5,6-hexahydroazepino[4,5-b]indol-10-yl)-2-hydroxyacetamide], for which the IC50 was above 10 µM on cGAS [1] and above 39.8 µM on cGAS [2].
On to `CC1C(=O)NCCc2[nH]c3c(Cl)c(Cl)cc(NCC(F)F)c3c21` (stereo not shown) [Example 70, 7,8-Dichloro-10-((2,2-difluoroethyl)amino)-1-methyl-3,4,5,6-tetrahydroazepino[4,5-b]indol-2(1H)-one], for which the IC50 against cGAS [1] came to 1.29 µM; on cGAS [2], 0.0305 µM.
Turning to `C[C@@H]1C(=O)NCCc2[nH]c3c(Cl)c(Cl)cc(OCC#N)c3c21` (single isomer, unassigned) [Example 16A], the IC50 against cGAS [1] worked out at 0.871 µM; on cGAS [2] it was 0.00218 µM.
Turning to `C[C@@H](O)CNc1cc(Cl)c(Cl)c2[nH]c3c(c12)[C@@H](C)C(=O)NCC3` (single isomer, unassigned) [Example 55], the IC50 against cGAS [1] is 1.92 µM; at cGAS [2], 0.0465 µM.
Regarding `COCCNc1cc(Cl)c(Cl)c2[nH]c3c(c12)[C@@H](C)C(=O)NCC3` (single isomer, unassigned) [Example 48], the IC50 is above 10 µM on cGAS [1] and 6.49 µM on cGAS [2].
For `COCC(=O)Nc1cc(Cl)c(Cl)c2[nH]c3c(c12)[C@@H](C)C(=O)NCC3` (single isomer, unassigned) [Example 40], in that order: 0.787 µM and 0.0273 µM.
On the same counts, the results for `C[C@@H]1CNC(=O)Cc2c1[nH]c1c(Cl)c(Cl)cc(OCC#N)c21` (single isomer, unassigned) [Example 148] are 1.39 µM and 0.0414 µM.
Regarding `CC(O)CC1CNC(=O)Cc2c1n(C)c1c(Cl)c(Cl)cc(CC#N)c21` (mixture of isomers) [Example 128, 2-(7,8-Dichloro-5-(2-hydroxypropyl)-6-methyl-2-oxo-1,2,3,4,5,6-hexahydroazepino[4,5-b]indol-10-yl)acetonitrile], the half-inhibitory concentration (IC50) against cGAS [1] was 0.217 µM; on cGAS [2], 0.0136 µM.
On to `C[C@H]1C(=O)NCCc2[nH]c3c(Cl)c(Cl)cc(NCC(F)(F)CO)c3c21` (single isomer, unassigned) [Example 68, (R)-7,8-Dichloro-10-((2,2-difluoro-3-hydroxypropyl)amino)-1-methyl-3,4,5,6-tetrahydroazepino[4,5-b]indol-2(1H)-one or (S)-7,8-Dichloro-10-((2,2-difluoro-3-hydroxypropyl)amino)-1-methyl-3,4,5,6-tetrahydroazepino[4,5-b]indol-2(1H)-one], for which the results for the IC50 against cGAS [1] and on cGAS [2] were 0.49 µM and 0.00844 µM, respectively.
`C[C@@H]1C(=O)NCCc2c1c1c(NC(=O)CO)cc(Cl)c(Cl)c1n2CC(F)(F)F` (single isomer, unassigned) [Example 186, (S)—N-(7,8-Dichloro-1-methyl-2-oxo-6-(2,2,2-trifluoroethyl)-1,2,3,4,5,6-hexahydroazepino[4,5-b]indol-10-yl)-2-hydroxyacetamide or (R)—N-(7,8-Dichloro-1-methyl-2-oxo-6-(2,2,2-trifluoroethyl)-1,2,3,4,5,6-hexahydroazepino[4,5-b]indol-10-yl)-2-hydroxyacetamide]: the results for the IC50 against cGAS [1] and on cGAS [2] were 4.34 µM and 0.0489 µM, respectively.
On to `CC(=O)OCCCOc1cc(Cl)c(Cl)c2[nH]c3c(c12)C(C)C(=O)NCC3` (racemic) [Example 13, 3-((7,8-Dichloro-1-methyl-2-oxo-1,2,3,4,5,6-hexahydroazepino[4,5-b]indol-10-yl)oxy)propyl acetate], for which the IC50 on cGAS [1] was 0.582 µM; at cGAS [2] it was 9.05 µM.
As to `Cn1ncc(-c2cc(Cl)c(Cl)c3[nH]c4c(c23)CC(=O)NC[C@H]4CCO)n1` (single isomer, unassigned) [Example 8A], the IC50 against cGAS [1] came to 0.168 µM; on cGAS [2], 0.0156 µM.
For `Cn1c2c(c3c(CC#N)cc(Cl)c(Cl)c31)CC(=O)NC[C@H]2CCO` (single isomer, unassigned) [Example 122], the IC50 is 2.94 µM at cGAS [1] and 0.934 µM at cGAS [2].
Turning to `Cn1c2c(c3c(OCC#N)cc(Cl)c(Cl)c31)CC(=O)NCC2` [Example 21, 2-((7,8-Dichloro-6-methyl-2-oxo-1,2,3,4,5,6-hexahydroazepino[4,5-b]indol-10-yl)oxy)acetonitrile], the IC50 at cGAS [2] is 0.141 µM.
`Cn1ccc(-c2cc(Cl)c(Cl)c3[nH]c4c(c23)CC(=O)NCC4)n1` [Example 3, 7,8-Dichloro-10-(1-methyl-1H-pyrazol-3-yl)-3,4,5,6-tetrahydroazepino[4,5-b]indol-2(1H)-one]: the IC50 at cGAS [2] came to 0.111 µM.

The values are drawn from patent publication US20240246979A1, “cGAS INHIBITORS” (Eli Lilly and Company, priority 2022, published 2024).
